Patent publication US20170304280A1, “SYNERGISTIC COMBINATIONS STIMULATING THE EXPRESSION OF SIRTUIN 1” (priority 2014, published 2017)

System: SIRT 1
Experiment: Western blot analysis of the expression of SIRT 1 in HeLa cells
Type: cell-based, Human
Conditions: for % 3 h increase (SIRT 1 expression compared to control) / % 6 h increase (SIRT 1 expression compared to control) / % 24 h increase (SIRT 1 expression compared to control): HeLa cells; for increase of SIRT 1 expression relative to the other groups: Table 1, especially with respect to resveratrol, reference standard
Description: The synergistic effects of co-administration of two substances on SIRT 1 stimulation, determined as a greater, statistically significant effect than the sum of the effects of the two substances individually administered, were evaluated in cell cultures by repeating the experiment at least 8 times for each single combination, either after a stimulation time of 3, 6 and 24 hours (more than 300 total trials), as described in the following detailed description.
Human Cervical Carcinoma cells (HeLa) were cultured in DMEM supplemented with 10% (v/v) fetal bovine serum, 1% antibiotics (penicillin and streptomycin) and 1% L-glutamine at 37° C. in a humidified air atmosphere with 5% (v/v) CO2.
The cells were grown to a confluence of 80%, were then trypsinized, counted with a Burker chamber and plated (100,000 cells /well). The day of the experiment, the cells were treated with the substances at the different concentrations and left in incubation for 3, 6 and 24 hours. The substances were solubilized in DMSO, used at concentrations not toxic for cells (v/v<0.5%).
At the end of the incubation periods, the cells were washed with PBS (pH 7.4) and collected in a 1.5 ml microtube with 0.130 ml of lysis buffer (RIPA buffer) containing a protease inhibitor cocktail, a phosphatase inhibitor cocktail, PMSF, sodium orthovanadate and sodium pyrophosphate.
They were lysed by three freezing-thawing cycles and then the supernatant were recovered.
A part of the lysate was used to quantified the protein content with the spectrophotometer (Thermo Scientific Multiskan FC, Thermo Scientific), using a commercial kit based on the Bradford assay. The final concentrations are expressed in μg/μl.
The cell lysates (25 μg/μl) were combined with the appropriate amount of 1× SDS sample buffer (0.5 M Tris-HCl pH 6.8, 20% SDS, 10% [vol/vol] glycerol, 5% [vol/vol] β-mercaptoethanol, 0.2% bromophenol blue), heated at 95° C. for 5 min, separated by SDS-PAGE and then transferred to polyvinylidene difluoride membranes (PVDF).
For the electrophoretic separation was used a polyacrylamide gel, composed of two parts, a lower one called “Running gel”, containing acrylamide (acrylic acid amide) to 12% (acrylamide/bis-acrylamide 30%), in which occurs the separation of the proteins, and an upper one, called loading gel or “Stacking gel”, containing acrylamide to 10%, where were built the wells for sample loading.
The electrophoretic run was performed by passing a current at 200V for about 1 hour, or until when the front has not reached the bottom of the gel.
Once running, the proteins were transferred from the gel to a […] membrane (PVDF).
The transfer was performed by passing a voltage of 100V for 1 hour.
The membranes were blocked with 5% (wt/vol) nonfat dry milk in Tris-buffered saline with Tween buffer (T-TBS) (20 mmol/1 Tris-Hcl, pH 7.6, 0.138 mol/l NaCl, and 0.1% Tween 20) for 1 hour under stirring and at room temperature.
The expression of SIRT 1 was analyzed incubating the membranes in the presence of specific primary antibodies and, subsequently, of secondary peroxidase-conjugated antibodies, suitable diluted in 5% BSA in T-TBS. Primary Antibodies were used overnight at 4° C. at the following conditions: anti-SIRT 1, rabbit (1:1000) and anti-β-actine, mouse (1:1000). Secondary antibodies were instead used at this dilution: goat anti-rabbit (1:10000) for SIRT 1 and for β-actin.
During this phase the primary antibody binds to species-specific secondary antibody conjugated to a peroxidase enzyme that will bind, in the next step, a specific substrate (luminol) for the reaction of chemiluminescence.
Later, were performed a series of washes with TBS-Tween under stirring, in order to remove all the unbound secondary antibody.
Bound antibodies were visualized using Chemiluminescence Luminata Crescendo Western HRP Substrate and bands were detected and analyzed by the Kodak Image Station 440CF (Eastman Kodak, Rochester, N.Y., USA).

Row | Compound | % 3 h increase (SIRT 1 expression compared to control) (5 μM) | % 6 h increase (SIRT 1 expression compared to control) (5 μM) | % 24 h increase (SIRT 1 expression compared to control) (5 μM) | % 3 h increase (SIRT 1 expression compared to control) (10 μM) | % 6 h increase (SIRT 1 expression compared to control) (10 μM) | % 24 h increase (SIRT 1 expression compared to control) (10 μM) | increase of SIRT 1 expression relative to the other groups | % 3 h increase (SIRT 1 expression compared to control) (25 μM) | % 6 h increase (SIRT 1 expression compared to control) (25 μM) | % 24 h increase (SIRT 1 expression compared to control) (25 μM) | % 3 h increase (SIRT 1 expression compared to control) (50 μM) | % 6 h increase (SIRT 1 expression compared to control) (50 μM) | % 24 h increase (SIRT 1 expression compared to control) (50 μM) | % 3 h increase (SIRT 1 expression compared to control) (20 μM) | % 6 h increase (SIRT 1 expression compared to control) (20 μM) | % 24 h increase (SIRT 1 expression compared to control) (20 μM)
1 | COc1ccc2cc3[n+](cc2c1OC)CCc1cc2c(cc1-3)OCO2 [Berberine, Berberine Chloride Hydrate] | 63% | 65% | 75% | 65% | 64% | 75% | greater increase than the other groups |  |  |  |  |  |  |  |  | 
2 | COc1cc(/C=C/C(=O)O)ccc1O [Ferulic Acid] |  |  |  |  |  |  | greater increase than the other groups | 43% | 44% | 66% | 57% | 58% | 75% |  |  | 
3 | O.O.O=c1c(O)c(-c2ccc(O)c(O)c2)oc2cc(O)cc(O)c12 [Quercetin, Quercetin Dihydrate] | 21% | 22% | 29% | 27% | 27% | 54% |  |  |  |  |  |  |  |  |  | 
4 | Oc1ccc(C=Cc2cc(O)cc(O)c2)cc1 [Resveratrol, reference compound] | 46% | 47% | 68% | 47% | 48% | 69% |  |  |  |  |  |  |  |  |  | 
5 | OCCc1ccc(O)cc1 [Tyrosol] |  |  |  | 53% | 62% | 68% | greater increase than the other groups |  |  |  |  |  |  | 76% | 93% | 101%
6 | (+)-Catechin | 44% | 44% | 46% | 54% | 54% | 57% | greater increase than the other groups |  |  |  |  |  |  |  |  | 
